Patent US12389906B2, “Aqueous herbicidal concentrates” (Monsanto Technology LLC, priority 2014, dated 2025)

Assays:
narrowleaf weed species [1] = experiment: Field Trial 2 results summary, narrowleaf control; format: in vivo; conditions: 0.25 lb a.i./acre (0.28 kg/hectare), 4 WAT
From the text: (§1) Four replications were completed per treatment.

DIGSS (Digitaria sps.) = experiment: Field trial 1 weed control, DIGSS; format: in vivo; conditions: 0.25 lb/acre, pre-emergence to weeds, 4 WAT
From the text: as §1

SORHA (johnsongrass) = experiment: Field trial 1 weed control, SORHA; format: in vivo; conditions: 0.25 lb/acre, pre-emergence to weeds, 4 WAT
From the text: as §1

broadleaf weed species [2] = experiment: Field Trial 1 results summary, broadleaf control; format: in vivo; conditions: 0.25 lb a.i./acre (0.28 kg/hectare), 4 WAT
From the text: as §1

[3] = test system: CHEAL (common lambsquarters); experiment: Field trial 1 weed control, CHEAL; format: in vivo; conditions: 0.25 lb/acre, pre-emergence to weeds, 4 WAT
From the text: as §1

SORSS (Sorghum sps.) = experiment: Field trial 1 weed control, SORSS; format: in vivo; conditions: 0.25 lb/acre, pre-emergence to weeds, 4 WAT
From the text: as §1

AMATG = experiment: Field trial 1 weed control, AMATG; format: in vivo, Glyphosate-resistant (GR) AMATA; conditions: 0.25 lb/acre, pre-emergence to weeds, 4 WAT
From the text: as §1

[4] = test system: ACCOS (hophornbeam copperleaf); experiment: Field trial 1 weed control, ACCOS; format: in vivo; conditions: 0.25 lb/acre, pre-emergence to weeds, 4 WAT
From the text: as §1

SEBEX = experiment: Field trial 1 weed control, SEBEX; conditions: 0.25 lb/acre, pre-emergence to weeds, 4 WAT
Experimental: A series of field trials were conducted at a variety of locations. The soil texture at these sites ranged from silty loam, silty clay loam, to sandy silt loam and sandy loam. The objective of the experiment was to evaluate the weed efficacy and length of residual efficacy of the each standalone herbicide compared to the herbicide combinations. The experiments were conducted in a randomized complete block design. Four replications were completed per treatment. Time of application was pre-emergence to weeds, and treatments were applied using a back-pack or tractor mounted sprayer.
Weed control was determined as a percentage as compared to untreated plants following a standard procedure where visual assessment of plant mortality and growth reduction is made by one specially trained to make such assessments. Across the field trials, the results for 16 broadleaf and 7 narrowleaf weed species were recorded. […] Mean percent control and standard error are calculated by the least squares method.

ABUTH (velvetleaf) = experiment: Field trial 1 weed control, ABUTH; format: in vivo; conditions: 0.25 lb/acre, pre-emergence to weeds, 4 WAT
From the text: as §1

EPHSS (Euphorbia sps.) = experiment: Field trial 1 weed control, EPHSS; format: in vivo; conditions: 0.25 lb/acre, pre-emergence to weeds, 4 WAT
From the text: as §1

broadleaf weed species [5] = experiment: Field Trial 2 results summary, broadleaf control; format: in vivo; conditions: 0.25 lb a.i./acre (0.28 kg/hectare), 4 WAT
From the text: as §1

IPOHE = experiment: Field trial 1 weed control, IPOHE; format: in vivo; conditions: 0.25 lb/acre, pre-emergence to weeds, 4 WAT
From the text: as §1

SETFA (giant foxtail) = experiment: Field trial 1 weed control, SETFA; format: in vivo; conditions: 0.25 lb/acre, pre-emergence to weeds, 4 WAT
From the text: as §1

HIBTR (venice mallow) = experiment: Field trial 1 weed control, HIBTR; format: in vivo; conditions: 0.25 lb/acre, pre-emergence to weeds, 4 WAT
From the text: as §1

narrowleaf weed species [6] = experiment: Field Trial 1 results summary, narrowleaf control; format: in vivo; conditions: 0.25 lb a.i./acre (0.28 kg/hectare), 4 WAT
From the text: as §1

DIGSA = experiment: Field trial 1 weed control, DIGSA; format: in vivo; conditions: 0.25 lb/acre, pre-emergence to weeds, 4 WAT
From the text: as §1

POROL (common purslane) = experiment: Field trial 1 weed control, POROL; format: in vivo; conditions: 0.25 lb/acre, pre-emergence to weeds, 4 WAT
From the text: as §1

AMBEL (common ragweed) = experiment: Field trial 1 weed control, AMBEL; format: in vivo; conditions: 0.25 lb/acre, pre-emergence to weeds, 4 WAT
From the text: as §1

AMAPA = experiment: Field trial 1 weed control, AMAPA; format: in vivo, palmer amaranth; conditions: 0.25 lb/acre, pre-emergence to weeds, 4 WAT
From the text: as §1

ECHCF = experiment: Field trial 1 weed control, ECHCF; format: in vivo; conditions: 0.25 lb/acre, pre-emergence to weeds, 4 WAT
From the text: as §1

IPOLA = experiment: Field trial 1 weed control, IPOLA; format: in vivo; conditions: 0.25 lb/acre, pre-emergence to weeds, 4 WAT
From the text: as §1

MOLVE (carpetweed) = experiment: Field trial 1 weed control, MOLVE; format: in vivo; conditions: 0.25 lb/acre, pre-emergence to weeds, 4 WAT
From the text: as §1

AMAPG = experiment: Field trial 1 weed control, AMAPG; format: in vivo, Glyphosate-resistant (GR) AMAPA; conditions: 0.25 lb/acre, pre-emergence to weeds, 4 WAT
From the text: as §1

ECHCG (Echinochola sps.) = experiment: Field trial 1 weed control, ECHCG; format: in vivo; conditions: 0.25 lb/acre, pre-emergence to weeds, 4 WAT
From the text: as §1

[7] = test system: IPOSS (Morningglory sps.); experiment: Field trial 1 weed control, IPOSS; format: in vivo; conditions: 0.25 lb/acre, pre-emergence to weeds, 4 WAT
From the text: as §1

CASOB (sicklepod) = experiment: Field trial 1 weed control, CASOB; format: in vivo; conditions: 0.25 lb/acre, pre-emergence to weeds, 4 WAT
From the text: as §1

PESGL (pearl millet) = experiment: Field trial 1 weed control, PESGL; format: in vivo; conditions: 0.25 lb/acre, pre-emergence to weeds, 4 WAT
From the text: as §1

SIDSP (prickly sida) = experiment: Field trial 1 weed control, SIDSP; format: in vivo; conditions: 0.25 lb/acre, pre-emergence to weeds, 4 WAT
From the text: as §1

AMATA = experiment: Field trial 1 weed control, AMATA; format: in vivo, waterhemp; conditions: 0.25 lb/acre, pre-emergence to weeds, 4 WAT
From the text: as §1

BRASS (Signalgrass sps.) = experiment: Field trial 1 weed control, BRASS; format: in vivo; conditions: 0.25 lb/acre, pre-emergence to weeds, 4 WAT
From the text: as §1

## CS(=O)(=O)NC(=O)c1cc(Oc2ccc(C(F)(F)F)cc2Cl)ccc1[N+](=O)[O-] [Fomesafen, fomesafen]
Narrowleaf weed species [1]
  Narrowleaf Control: 66.3%
DIGSS (Digitaria sps.)
  % Control (mean): 99.0%
SORHA (johnsongrass)
  % Control (mean): 86.8%
Broadleaf weed species [2]
  Broadleaf Control: 70%
[3]
  % Control (mean): 78.3%
SORSS (Sorghum sps.)
  % Control (mean): 99.8%
AMATG
  % Control (mean): 57.5%
[4]
  % Control (mean): 93.8%
SEBEX
  % Control (mean): 33.8%
ABUTH (velvetleaf)
  % Control (mean): 63.7%
EPHSS (Euphorbia sps.)
  % Control (mean): 100.0%
Broadleaf weed species [5]
  Broadleaf Control: 63.6%
IPOHE
  % Control (mean): 52.5%
SETFA (giant foxtail)
  % Control (mean): 58.8%
HIBTR (venice mallow)
  % Control (mean): 75.0%
Narrowleaf weed species [6]
  Narrowleaf Control: 79%
DIGSA
  % Control (mean): 65.3%
POROL (common purslane)
  % Control (mean): 66.3%
AMBEL (common ragweed)
  % Control (mean): 75.8%
AMAPA
  % Control (mean): 92.5%
ECHCF
  % Control (mean): 71.9%
IPOLA
  % Control (mean): 27.5%
MOLVE (carpetweed)
  % Control (mean): 90.6%
AMAPG
  % Control (mean): 87.8%
ECHCG (Echinochola sps.)
  % Control (mean): 66.8%
[7]
  % Control (mean): 63.1%
CASOB (sicklepod)
  % Control (mean): 46.2%
PESGL (pearl millet)
  % Control (mean): 100.0%
SIDSP (prickly sida)
  % Control (mean): 98.3%
AMATA
  % Control (mean): 85.8%
BRASS (Signalgrass sps.)
  % Control (mean): 99.5%
